Here are results for 1 compound from patent US20180360799A1, “Nitrofuran Derivatives That Induce Apoptosis in Breast Cancer Cells by Activating Protein Expression” (Oklahoma Medical Research Foundation, priority 2015, published 2018).

For experiment [1], the system named is p-eIF2α. The experiment can be described thus: eIF2α phosphorylation by Western blotting. In kind it is cell-based, human. The note with it: 10 μM, indicated times. How it is done:
(§1) FIG. 3D is an image showing ATF4 and p-EIF2α protein levels after treatment with a 5-nitrofuran-2-amide derivative compound 3d. Cells were treated with compound 3d (10 μM) for the indicated times, and ATF4 and p-eIF2a protein levels were analyzed by Western blotting. α-Tubulin was used as a loading control. The data shown are representative of 3 independent studies.
(§2) Prolonged or severe ER stress activates CHOP expression primarily through the PERK branch of the unfolded protein response, although the IRE1α and ATF6 branches also contribute.^5, 18 The 5-nitrofuran-2-amide derivatives could induce CHOP expression by acting as an ER stressor that activates all three branches of unfolded protein response or by preferentially activating a select branch of unfolded protein response. To distinguish between these possibilities, the inventor investigated which branches of the unfolded protein response were affected by compound 3d. Activation of the PERK pathway by ER stress leads to phosphorylation of eIF2α, followed by activation of the transcription and translation of the transcription factor ATF4, a 5′-upstream ORF-containing gene, and ATF4-mediated CHOP expression.^5, 22 To determine whether the PERK pathway is involved in compound 3d-mediated CHOP induction, ATF4 expression and eIF2a phosphorylation in HCC-1806 cells by qRT-PCR and Western blotting were analyzed. […]

Experiment [2] has as its system HCC-1143 cells. Description: Cell viability, CellTiter-Glo, HCC-1143. In kind it is cell-based. Conditions: Homo sapiens, HCC1143, 72 h; Table 2; cancer cell viability, 3 d treatment; read-out: HCC-1143 IC50. As to the method: (§3) Given the known functions of CHOP in ER stress-induced apoptosis^16, 17 and in regulating cancer cell death,^6, 19, 20 the inventor investigated whether compound 1 affects the viability of TNBC cells. Three human TNBC cell lines, HCC-1806, HCC-1143, and HCC-38, were treated with doses of 1 ranging from 0.125 μM to 20 μM and their viability was assessed using the CellTiter-Glo assay, which measures intracellular ATP levels.
(§4) HCC-1806, HCC-1143, or HCC-38 cells were seeded at 3×10^3 cells/well in a 384-well plate and treated with compounds at the indicated concentrations. After 3 d treatment, the medium was aspirated and 20 μL/well of CellTiter-Glo reagent was added. Cell viability was measured with an EnVision multilabel plate reader. The IC50 value for cell viability of each compound was calculated with GraphPad Prism (La Jolla, Calif., US).

The test system of experiment [3] is CHOP gene. The experiment can be described thus: CHOP mRNA by qRT-PCR in HCC-1806 cells. It is filed as cell-based, human. How it is done:
The results are the means of 4 replicate wells and are representative of 3 independent studies. *P<0.05 and **P<0.01 by Student's t-test compared with cells treated with DMSO (in FIG. 3A) or with 3d for 0 h (in FIG. 3B). […] The results are the means of 4 replicate wells and are representative of 3 independent studies. *P<0.05 and **P<0.01 by Student's t-test compared with cells treated with compound 3d for 0 h. […] Total RNA was extracted using TRIzol reagent (Invitrogen, Carlsbad, Calif.) according to the manufacturer's protocol, and 2 μg of total RNA was reverse transcribed using a Superscript kit (Invitrogen). Real-time PCR was performed in 96-well format using SYBR Select Master Mix (Applied Biosystems, Foster City, Calif.) with an ABI 7500 PCR system (Applied Biosystems). The primer sequences used were: Human CHOP: SEQ ID NO: 1 [NT] and SEQ ID NO: 2 [NT]. Human ATF4: SEQ ID NO: 3 [NT] and SEQ ID NO: 4 [NT]. Human XBP1: SEQ ID NO: 5 [NT] and SEQ ID NO: 6 [NT]. Human Cyclophilin A: SEQ ID NO: 7 [NT] and SEQ ID NO: 8 [NT]. Human GAPDH: SEQ ID NO: 9 [NT] and SEQ ID NO: 10 [NT].

For experiment [4], the system named is caspase-3. Description: Caspase-3 cleavage by Western blotting in HCC-1806 cells. It is filed as cell-based, human. The note with it: HCC-1806, 10 μM, at 8 h and 24 h. How it is done:
FIG. 2A is an image showing apoptosis of HCC-1806 cells after treatment with a 5-nitrofuran-2-amide derivative compound 3d (above). Cells were treated with 3d (10 μM) for the indicated times, and cleavage of caspase-3 was determined by Western blotting. α-Tubulin was used as a loading control. The data shown are representative of 3 independent studies. FIGS. 2B and 2C are live-cell phase-contrast images (magnification 10×) showing treatment with DMSO and (10 μM) 5-nitrofuran-2-amide derivative compound 3d respectively for 24 h. To determine whether the reduction in TNBC cell viability by the 5-nitrofuran-2-amide derivatives was due to the induction of apoptosis, the inventor analyzed cleavage of caspase-3, a critical executioner of apoptosis, in HCC-1806 cells treated with compound 3d. […] To confirm this, HCC-1806 cells were cultured to near confluence and treated with 10 μM 3d or DMSO for 24 h and then imaged by live-cell phase-contrast microscopy.
HCC-1806 cells were seeded in 60-mm dishes at 8×10^5 cells/dish and treated for the indicated times. Cells were then washed with PBS and lysed with lysis buffer (Cell Signaling Technology, Danvers, Mass., US) containing EDTA and phosphatase inhibitors. Aliquots of 20 μg total protein were separated on 7% SDS-PAGE gels (Life Technologies, Carlsbad, Calif., US) and transferred to PVDF membranes. […]

For experiment [5], the system named is HCC-38 cells. The experiment can be described thus: Cell viability, CellTiter-Glo, HCC-38. It is filed as cell-based. Conditions: Homo sapiens, HCC38, 72 h; Table 2; cancer cell viability, 3 d treatment; read-out: HCC-38 IC50. As to the method:
as §3, §4

The subject of experiment [6] is ATF4 protein. Description: ATF4 protein by Western blotting. It is filed as cell-based, human. Conditions: 10 μM, indicated times. How it is done: as §1, §2

For `CC1CCN(c2ccc(NC(=O)c3ccc([N+](=O)[O-])o3)cc2)CC1` [Compound 3d], the “phosphorylation of eIF2α” value in experiment [1] was “substantially increased the phosphorylation of eIF2a”. The values for the IC50 in experiment [2] and in experiment [5] were 2.1 µM and 2.5 µM, respectively. Moreover, in experiment [3] (HCC-1806, 10 μM, indicated times), the “CHOP transcription, time dependence” value was “increased CHOP transcription in a time-dependent fashion”. Moreover, in experiment [3] (HCC-1806, dose- and time-dependent studies), the “CHOP mRNA levels relative to DMSO-treated cells” value is given as “up to 9 fold”. The “CHOP mRNA levels, dose dependence” value in experiment [3] (HCC-1806, indicated concentrations, 8 h) is listed as “significantly increased CHOP mRNA levels in a dose-dependent manner”. Also, the “cleavage of caspase-3” value in experiment [4] is on record as “increased cleavage of caspase-3 protein levels”. In experiment [6], the “ATF4 expression, protein” value is “significantly increased ATF4 expression”.
